Values quoted from earlier work as cited in US12194143B2, “Mycophenolate oral suspension” (LIQMEDS WORLDWIDE LIMITED, priority 2018, dated 2025).
Structures can show the parent of a compound that is named as a salt. Where two headings read alike, the source gives them in different places.

For C[C@@H](NCCCc1cccc(C(F)(F)F)c1)c1cccc2ccccc12 [Cinacalcet hydrochloride, N-[1-(R)-(−)-(1-naphthyl)ethyl]-3-[3-(trifluoromethyl)phenyl]-1-aminopropane], the solubility (in 95% ethanol) is listed as “soluble”, the solubility (in methanol) is listed as “soluble” and the solubility (in water) is listed as “slightly soluble”.
